Drawing on US11478460B2, “Diaryl substituted 6,5-fused ring compounds as C5aR inhibitors” (CHEMOCENTRYX, INC., priority 2017, dated 2022), this text covers IC50 for 60 molecules.

For this assay, the target named is C5aR (Homo sapiens (Human), UniProt P21730). Description: Chemotaxis assay using U937 cells (C5aR mediated migration). It is filed as cell-based. The note with it: read-out: Mig IC50. A digest of the protocol: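 Migration toward 0.03 nM C5a, mixed with varying compound in the lower chamber (HBSS with 1% FBS), was measured over 1.5 h at 37° C through 5 μm filters. Upper chamber held 100,000 U937 cells treated overnight with 0.5 mM cAMP; migrated cells quantified by counts or CyQuant for IC50, SDF-1α as specificity control.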

A value given as a limit tells only on which side of the number the result lay.

Chain of C5aR (P21730 whole entry): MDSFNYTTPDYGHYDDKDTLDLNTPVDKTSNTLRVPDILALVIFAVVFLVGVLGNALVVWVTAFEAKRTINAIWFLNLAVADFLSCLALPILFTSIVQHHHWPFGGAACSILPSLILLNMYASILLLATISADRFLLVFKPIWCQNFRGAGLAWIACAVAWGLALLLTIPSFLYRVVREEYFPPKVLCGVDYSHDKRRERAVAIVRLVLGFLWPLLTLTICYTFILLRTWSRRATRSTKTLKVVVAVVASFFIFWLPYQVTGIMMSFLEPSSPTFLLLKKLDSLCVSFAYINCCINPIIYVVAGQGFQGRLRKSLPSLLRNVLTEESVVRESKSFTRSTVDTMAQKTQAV

Turning to `Cc1cccc(CCC(C)C)c1-n1nc2c(c1-c1ccc(NC(N)=O)cc1)CN(c1ncc(C(F)(F)F)cc1F)CC2` [Example 1.311], the IC50 lay within 5 to 50 nM. Regarding `Cc1cc(C(F)(F)F)ccc1CN1CCc2nn(-c3c(C)cccc3OCC(C)C)c(-c3ccc(NC(N)=O)cc3)c2C1` [Example 1.384], the half-maximal inhibitory concentration (IC50) is 5 to 50 nM. For `Cc1cccc(Cl)c1CN1CCc2nn(-c3c(C)cccc3OCC(C)C)c(-c3ccc(NC(N)=O)cc3)c2C1` [Example 1.359] the value was ≤ 5 nM. With `CC[C@@H](c1ccccc1)N1CCc2nn(-c3c(C)cccc3C)c(-c3ccc(NC(N)=O)c(F)c3)c2C1` [Example 1.083], the IC50 lay within 5 to 50 nM. For the molecule `Cc1cccc(C)c1-n1nc2c(c1-c1cc(F)c(O)cc1F)CN(c1ncc(Cl)cc1Cl)CC2` [Example 1.112], the half-inhibitory concentration (IC50) was ≤ 5 nM. Regarding `COc1ccc(-c2c3c(nn2-c2c(C)cccc2C)CCN(c2cc(C(C)(C)C)ccc2C)C3)cc1` [Example 1.472], the half-inhibitory concentration (IC50) is 50 to 500 nM. Take `COc1cc(-c2c3c(nn2-c2c(C)cccc2OCC(C)C)CCN(c2ncc(C(F)(F)F)cc2F)C3)ccc1NC(N)=O` [Example 1.267]: the IC50 lay in the range of 5 to 50 nM. For the molecule `Cc1cccc(OC(C)C)c1-n1nc2c(c1-c1ccc(NC(N)=O)cc1)CN(c1ccccc1C(C)C)CC2` [Example 1.460], the IC50 is ≤ 5 nM. For the molecule `Cc1cccc(CC(C)C)c1-n1nc2c(c1-c1ccc(NC(N)=O)cc1)CN(C(=O)OC(C)(C)C)CC2` [Example 1.415], the IC50 was 50 to 500 nM. Consider `Cc1cccc(OCC(C)C)c1-n1nc2c(c1-c1ccc(NC(N)=O)c(F)c1)CN(CC(C)C)CC2` [Example 1.273], for which the concentration for half-maximal inhibition (IC50) fell in the range of 5 to 50 nM. Regarding `Cc1cccc(C)c1-n1nc2c(c1-c1cc(F)c(NC(N)=O)cc1F)CN(c1ccc(F)cc1Cl)CC2` [Example 1.106], the IC50 is ≤ 5 nM.

In the case of `Cc1cccc(OCC(C)C)c1-n1nc2c(c1-c1ccc(NC(N)=O)cc1)CN(CC(C)(C)C#N)CC2` [Example 1.349], the IC50 lay within 50 to 500 nM. The figure for `Cc1cccc(OCC(C)C)c1-n1nc2c(c1-c1ccc(NC(N)=O)c(F)c1)CN(c1ncc(C(F)(F)F)cc1F)CC2` [Example 1.288] is ≤ 5 nM. As to `Cc1cccc(OCC(C)C)c1-n1nc2c(c1-c1ccc(N)c(Cl)c1)CN(c1ncc(C(F)(F)F)cc1F)CC2` [Example 1.279], the concentration for half-maximal inhibition (IC50) was in the range of 5 to 50 nM. The figure for `CC[C@@H](c1ccccc1)N1CCc2nn(-c3c(C)cccc3C)c(-c3cc(F)c(NC(N)=O)cc3F)c2C1` [Example 1.092] is ≤ 5 nM; for `CCc1cccc(CC)c1-n1nc2c(c1-c1cc(F)c(NC(N)=O)cc1F)CN(C(CC)c1ccccc1F)CC2` (stereo not drawn) [Example 1.150] it is ≤ 5 nM; for `Cc1cccc(OCC(C)C)c1-n1nc2c(c1-c1ccc(NC(N)=O)cc1)CN(c1cc(C(F)(F)F)ccc1C(F)(F)F)CC2` [Example 1.342] it is ≤ 5 nM. Regarding `CCc1cccc(CC)c1-n1nc2c(c1-c1ccc(NC(N)=O)c(F)c1)CN(Cc1ccccc1C(F)(F)F)CC2` [Example 1.244], the half-inhibitory concentration (IC50) was ≤ 5 nM. For the molecule `CCc1cccc(CC)c1-n1nc2c(c1-c1cc(F)c(NC(N)=O)cc1F)CN(Cc1ccc(C(C)(C)C)cc1)CC2` [Example 1.054], the 50% inhibitory concentration (IC50) was ≤ 5 nM.

Take `Cc1cc(NC(N)=O)ccc1-c1c2c(nn1-c1c(C)cccc1C)CCN(c1ccccc1C(C)C)C2` [Example 1.463]: the half-maximal inhibitory concentration (IC50) was ≤ 5 nM. Regarding `CCc1cccc(CC)c1-n1nc2c(c1-c1ccc(NC(N)=O)cc1)CN(CC(C)(C)C)CC2` [Example 1.282], the IC50 is 5 to 50 nM.

As for `CCc1cccc(CC)c1-n1nc2c(c1-c1ccc(NC(N)=O)cc1)CN(CC(C)(C)C(F)(F)F)CC2` [Example 1.285], the half-inhibitory concentration (IC50) lay in the range of 5 to 50 nM. Regarding `Cc1cccc(OCC(C)C)c1-n1nc2c(c1-c1ccc(NC(N)=O)c(F)c1)CN(C(C)C1CCCCC1)CC2` (stereo not drawn) [Example 1.232], the half-inhibitory concentration (IC50) is ≤ 5 nM.

On to `Cc1cc(C)c(CN2CCc3nn(-c4c(C)cccc4OCC(C)C)c(-c4ccc(NC(N)=O)cc4)c3C2)c(C)c1` [Example 1.365], for which the half-inhibitory concentration (IC50) was ≤ 5 nM. For `CCc1cccc(CC)c1-n1nc2c(c1-c1cc(F)c(NC=O)cc1F)CN(Cc1ccc(C(F)(F)F)cc1C(F)(F)F)CC2` [Example 1.003], the IC50 is ≤ 5 nM. For `CCc1cccc(CC)c1-n1nc2c(c1-c1cc(F)c(NC(N)=O)cc1F)CN(Cc1ccc(C(F)(F)F)cc1C)C(C)(C)C2` [Example 1.047], the IC50 is ≤ 5 nM. For `CC(C)(c1ccccc1)N1CCc2nn(-c3ccccc3OCC(F)(F)F)c(-c3cc(F)c(NC(N)=O)cc3F)c2C1` [Example 1.136] the value was ≤ 5 nM; for `Cc1cccc(OCC(C)C)c1-n1nc2c(c1-c1ccc(NC(N)=O)cc1)CN(Cc1ccccc1C(F)(F)F)CC2` [Example 1.361], ≤ 5 nM; for `Cc1cccc(C)c1-n1nc2c(c1-c1cc(F)c(NC(N)=O)cc1F)CN(Cc1ccc(C(F)(F)F)cc1C(F)(F)F)C(C)(C)C2` [Example 1.033], ≤ 5 nM.

For the molecule `Cc1cccc(C)c1-n1nc2c(c1-c1cc(F)c(NC(N)=O)cc1F)CN(c1ccc(C(C)(C)C)cc1Cl)CC2` [Example 1.098], the half-maximal inhibitory concentration (IC50) was ≤ 5 nM. The figure for `Cc1cc(-c2c3c(nn2-c2c(C)cccc2OCC(C)C)CCN(c2ncc(C(F)(F)F)cc2F)C3)cc(C)c1NC(N)=O` [Example 1.266] is > 500 nM. Regarding `Cc1cccc(OCC(C)C)c1-n1nc2c(c1-c1ccc(NC(N)=O)c(C#N)c1)CN(c1ncc(C(F)(F)F)cc1F)CC2` [Example 1.226], the IC50 was > 500 nM.

In the case of `CCc1cccc(CC)c1-n1nc2c(c1-c1ccc(NC(N)=O)c(F)c1)CN(C(C)CC)CC2` (stereo not drawn) [Example 1.235], the 50% inhibitory concentration (IC50) is 5 to 50 nM. On to `CCc1cccc(CC)c1-n1nc2c(c1-c1cc(F)c(NC(N)=O)cc1F)CN(C(=O)C(C)C)CC2` [Example 1.030], for which the IC50 lay in the range of 5 to 50 nM. With `CCc1cccc(CC)c1-n1nc2c(c1-c1cc(F)c(NC(N)=O)cc1F)CN(C(C)c1ccccc1C(F)(F)F)CC2` (stereo not drawn) [Example 1.208], the IC50 is ≤ 5 nM.

On to `CCc1cccc(CC)c1-n1nc2c(c1-c1cc(F)c(NC(N)=O)cc1F)CN(Cc1ccc(F)cc1C(F)(F)F)CC2` [Example 1.044], for which the IC50 was ≤ 5 nM. In the case of `CCc1cccc(CC)c1-n1nc2c(c1-c1cc(F)c(NC(N)=O)cc1F)CN(C(C)(C)c1ccccc1OC)CC2` [Example 1.149], the concentration for half-maximal inhibition (IC50) is ≤ 5 nM.

For `Cc1cccc(OCC(C)C)c1-n1nc2c(c1-c1cc(F)c(NC(N)=O)cc1F)CN(c1ncc(F)cn1)CC2` [Example 1.159], the IC50 was ≤ 5 nM. Consider `Cc1cccc(C)c1-n1nc2c(c1-c1cc(F)c(NC(N)=O)cc1F)CN(c1ncc(C3CC3)cc1Cl)CC2` [Example 1.124], for which the half-inhibitory concentration (IC50) was ≤ 5 nM.

Consider `Cc1cccc(OCC(C)C)c1-n1nc2c(c1-c1ccc(NC(N)=O)c(F)c1)CN(C(C)CC(C)C)CC2` (stereo not drawn) [Example 1.239], for which the IC50 was ≤ 5 nM. On to `COc1cccc(C)c1-n1nc2c(c1-c1ccc(NC(N)=O)cc1)CN(c1ccccc1C)CC2` [Example 1.484], for which the half-inhibitory concentration (IC50) lay in the range of 50 to 500 nM.

As to `CCc1cccc(CC)c1-n1nc2c(c1-c1ccc(NC(N)=O)c(F)c1)CN(C(C)C1CCCC1)CC2` (stereo not drawn) [Example 1.216], the IC50 was 5 to 50 nM. `Cc1cccc(C)c1-n1nc2c(c1-c1ccc(NC(N)=O)cc1)CN(c1ccccc1C(C)C)CC2` [Example 1.478]: the half-inhibitory concentration (IC50) is 50 to 500 nM. With `Cc1cccc(C)c1-n1nc2c(c1-c1cc(F)c(NC(N)=O)cc1F)CN(c1ncc(C(C)C)cn1)CC2` [Example 1.153], the IC50 is 5 to 50 nM. For the molecule `Cc1cccc(OCC(C)C)c1-n1nc2c(c1-c1cc(F)c(NC(N)=O)cc1F)CN(c1ncccn1)CC2` [Example 1.160], the half-inhibitory concentration (IC50) is ≤ 5 nM.

On to `Cc1cccc(C)c1-n1nc2c(c1-c1cc(F)c(NC(N)=O)cc1F)CN(c1ncc(C(C)C)cc1F)CC2` [Example 1.165], for which the IC50 is ≤ 5 nM. For `Cc1cccc(OCC(C)C)c1-n1nc2c(c1-c1ccc(NC(=O)N(C)C)cc1)CN(c1ncc(C(F)(F)F)cc1F)CC2` [Example 1.289] the value was > 500 nM. `Cc1cccc(OCC(C)C)c1-n1nc2c(c1-c1ccc(NC(N)=O)cc1)CN(c1nc(C(F)(F)F)ccc1F)CC2` [Example 1.386]: the half-inhibitory concentration (IC50) was in the range of 5 to 50 nM. For `CCc1cccc(CC)c1-n1nc2c(c1-c1ccc(NC(N)=O)cc1)CN(Cc1ccccc1C(F)(F)F)CC2` [Example 1.293] the value was 5 to 50 nM.

For `COc1ccc(Cl)c(CN2CCc3nn(-c4c(C)cccc4OCC(C)C)c(-c4ccc(NC(N)=O)cc4)c3C2)c1` [Example 1.302], the IC50 lay within 5 to 50 nM. Consider `CCc1cccc(CC)c1-n1nc2c(c1-c1cc(F)c(NC(N)=O)cc1F)CN(Cc1ccccc1C(F)(F)F)C(C)(C)C2` [Example 1.027], for which the IC50 is ≤ 5 nM.

With `CCc1cccc(CC)c1-n1nc2c(c1-c1ccc(NC(N)=O)c(F)c1)CN(c1ncc(Cl)cc1Cl)CC2` [Example 1.227], the half-maximal inhibitory concentration (IC50) was ≤ 5 nM. Turning to `Cc1cccc(OCC(C)C)c1-n1nc2c(c1-c1ccc(NC(N)=O)cc1)CN(c1ccc(Cl)cc1C(F)(F)F)CC2` [Example 1.317], the IC50 was ≤ 5 nM. In the case of `Cc1cccc(OCC(C)C)c1-n1nc2c(c1-c1ccc(NC(N)=O)c(F)c1)CN(C(c1ccccc1)C(F)(F)F)CC2` (stereo not drawn) [Example 1.225], the concentration for half-maximal inhibition (IC50) is ≤ 5 nM. As to `Cc1cccc(OCC(C)C)c1-n1nc2c(c1-c1ccc(NC(N)=O)cc1)CN(c1ncc(Cl)cc1Cl)CC2` [Example 1.258], the half-inhibitory concentration (IC50) was 5 to 50 nM.

As for `COc1cccc(F)c1-n1nc2c(c1-c1cc(F)c(NC(N)=O)cc1F)CN(c1ncc(Cl)cc1Cl)CC2` [Example 1.179], the half-inhibitory concentration (IC50) was in the range of 5 to 50 nM.

As to `CCc1cccc(CC)c1-n1nc2c(c1-c1cc(F)c(NC(N)=O)cc1F)CN(Cc1ccccc1C(F)(F)F)CC2` [Example 1.067], the 50% inhibitory concentration (IC50) is ≤ 5 nM. The figure for `Cc1cccc(OCC(C)C)c1-n1nc2c(c1-c1ccc(NC(N)=O)cc1)CN(C(=O)COC(C)(C)C)CC2` [Example 1.424] is > 500 nM; for `Cc1cc(Cl)cnc1N1CCc2nn(-c3c(C)cccc3OCC(C)C)c(-c3cc(F)c(NC(N)=O)cc3F)c2C1` [Example 1.168] it is ≤ 5 nM; for `CCc1cccc(CC)c1-n1nc2c(c1-c1cc(F)c(NC(N)=O)cc1F)CN(Cc1cc(C(F)(F)F)ccc1Cl)CC2` [Example 1.038] it is ≤ 5 nM.
